Four molecules from article PMC7728077, “Double-Headed Cationic Lipopeptides: An Emerging Class of Antimicrobials” (International Journal of Molecular Sciences, 2020) can be followed below.

The test system of experiment [1] is MCF-7 breast cancer cell line. The experiment is classed as cell-based, human.
Experiment [2] deals with A549 human epithelial lung carcinoma. In kind it is cell-based. On the procedure: (§1) In the case of evaluation of cytotoxicity towards different types of the cancer cell lines (A375, A549, HCT-116, HT-29, and LNCaP, respective cells were seeded in 96-well plates (4500 cell/well) in the RPMI-1640 medium supplemented with 5% FBS without antibiotics and incubated for 24 h before stimulation with the lipopeptides. The next day, the cells were exposed to the effect of the serially diluted compounds added at concentrations ranging from 1 to 25 µg/mL for a period of 48 h. After the treatment, cells viability was evaluated by means of MTT assays, according to standard protocol, as just described. The experiment was repeated three times for each cell line.
(§2) Determination of the half-maximum inhibitory concentrations (IC50) was done using GraphPad Prism 5 software (San Diego, CA, USA) based on the dose-response curves. The logarithm of the different concentrations of compounds was plotted against the percentage of inhibition in cell viability as compared with control probes, treated as 100%.

Experiment [3] relates to HCT-116 human colorectal carcinoma. The experiment is classed as cell-based. Here is the method:
as §1, §2

The test system of experiment [4] is HT-29 human colorectal adenocarcinoma. The experiment is classed as cell-based. On the procedure:
as §1, §2

In experiment [5] the test system is LNCaP human prostate carcinoma. In kind it is cell-based. Here is the method:
as §1, §2

The subject of experiment [6] is A375 human malignant melanoma cell line. In kind it is cell-based. Here is the method:
as §1, §2

In experiment [7] the target is POPG large unilamellar vesicles (LUVs). As to the kind of experiment: Isothermal titration calorimetry, binding to POPG. The settings on record: ITC, 298.15 K. On the procedure: Isothermal titration calorimetry (ITC) experiments were carried out at 298.15 K using an AutoITC isothermal titration calorimeter (MicroCal Inc., GE Healthcare, Northampton, MA, USA) equipped with a 1.4491 mL sample cell and a reference cell. A typical ITC experiment involved a series of consecutive injections of 10.02 µL aliquots of the titrant (2 µL for the first injection only) into the reaction cell, at an interval of 4 min. The stirrer speed was constantly kept at 300 rpm to provide thorough mixing inside the reaction cell. Three types of ITC experiments were performed. These included lipopeptides binding to POPG, POPC, and LPS. The experiments were carried out by titration of 1.3 mM POPG or POPC LUVs into 0.05 or 0.1 mM lipopeptide solutions and the titration of 0.5 or 0.75 mM lipopeptide solution into 200 or 400 µg/mL LPS solution. The molecular mass of LPS was assumed to be 20,000 Da. To assess the heat of dilution, control experiments were performed by titration of an appropriate titrant into PBS. Final results were evaluated with an ITC module for ORIGIN 7 software, provided by MicroCal, Inc. (Northampton, MA, USA). The binding constant, stoichiometry, and enthalpy of interactions were directly determined from ITC experiment by fitting one of the built-in curve fitting models to the experimental data points. Changes in entropy (∆S°) and the Gibbs free energy (∆G°) were calculated from the following equation: ∆G^°=−RTln(55.5Ka)=∆H^°−T∆S^° where 55.5 is the molar concentration of water, R is the gas constant (1.986 cal·mol^−1·K^−1), and T is the absolute temperature.
In general terms: ITC needs no label: the signal is the heat of the interaction.

In experiment [8] the test system is 46BR.1N human skin fibroblasts cell line. The experiment is classed as cell-based. Here is the method: (§3) Cytotoxicity was determined towards immortalized human HaCaT keratinocytes (DKFZ, Heidelberg, Germany), transformed human fibroblast cell line 46BR.1N (ECACC), as well as the human melanoma (A375), human lung cancer (A549), human colon cancer (HCT-116), human colon adenocarcinoma (HT-29), and human prostate cancer (LNCaP) cell lines. Keratinocytes and fibroblast cell lines were maintained in a humidified atmosphere with 5% CO2 at 37 °C in a Dulbecco’s modified Eagle’s medium (DMEM) (Sigma-Aldrich, Steinheim, Germany), which contained 4500 mg/L of glucose, 584 mg/L of L-glutamine, sodium pyruvate, and sodium bicarbonate. Additionally, the medium was supplemented with 10% of fetal bovine serum (FBS) (Sigma-Aldrich, Steinheim, Germany), 100 U/mL of penicillin, and 100 µg/mL of streptomycin (Sigma-Aldrich, Steinheim, Germany). The cells were grown in culture dishes (BD, Franklin Lakes, NJ, USA) and the medium was changed every 2 days. Afterwards, the fibroblasts and keratinocytes were harvested using a standard trypsin-EDTA solution, centrifuged, suspended in a medium supplemented with 10% FBS and seeded at a density of 5500–6000 cells per well into 96-well plates. After 24 h, the medium was exchanged with a serum- and antibiotic-free DMEM. The next day, serially diluted solutions of the lipopeptides prepared in a fresh FBS- and antibiotic-free medium were added to the wells. The potential cytotoxic effect of the compounds was analyzed over the concentration range of 1–25 µg/mL. After addition of the lipopeptides, cells were incubated for the next 24 h. At the end of the experiment, the cells were treated with 20 µL of MTT (5 mg/mL in PBS). After 3 h at 37 °C under 5% CO2, the medium was discarded and replaced by 6 mM HCl in isopropanol. As soon as the purple crystals of formazan were completely solubilized, absorbance was read at 570 nm with a plate reader. The optical density of the wells without the tested compounds were regarded as the positive control. The MTT assay was performed in triplicate for each cell line.
as §2

Experiment [9] relates to HaCaT human keratinocyte cell line. In kind it is cell-based. Here is the method: as §3, §2
[10] abbreviates: 1.3 mM POPG LUVs into lipopeptide, PBS, single transition or first line of two binding events.

Structures are written as SMILES. In brackets after ≈: the same amount, converted by molar mass. Square brackets hold non-standard residues; d marks the D form. Peptide text beside a SMILES is read from it. * marks the point of attachment. Palmitoyl = CCCCCCCCCCCCCCCC(=O)*; Dab = NCC[C@H](N)C(=O)O

`CCCCCCCCCCCCCCCC(=O)NCC[C@H](NC(=O)[C@@H](N)CCCCN)C(=O)N[C@@H](CCCCN)C(N)=O` [K(DabC16)K-NH2] (H-Lys-[Dab](Palmitoyl)-Lys-NH2): the “IC50, MCF-7 (48h)” value in [1] is 16.28 ± 1.02 mg/L (≈ 26.6 µM). Also, in experiment [2], the “IC50, A549 (48h)” value is above 25 mg/L. Besides, the “IC50, HCT-116 (48h)” value in experiment [3] turned out to be 16.79 ± 0.34 mg/L (≈ 27.4 µM). Further, in experiment [4], the “IC50, HT-29 (48h)” value was determined as 21.56 ± 0.22 mg/L (≈ 35.2 µM). For the same molecule, the “IC50, LNCaP (48h)” value in [5] was 14.3 ± 0.45 mg/L (≈ 23.4 µM). The “IC50, A375 (48h)” value in experiment [6] was 11.99 ± 0.38 mg/L (≈ 19.6 µM). Besides, the “pKITC, POPG” value in [7] (setting [10]) stood at 8.09 ± 0.37; in [7] (second line printed for the peptide (second binding event)), 6.59 ± 0.26. Also, the “IC50, 46BR.1N (24h)” value in [8] is 9.76 ± 0.70 mg/L (≈ 15.9 µM). The “IC50, HaCaT (24h)” value in experiment [9] is 7.96 ± 2.49 mg/L (≈ 13 µM).
Consider `CCCCCCCCCCCCCCCC(=O)NCCC[C@H](NC(=O)[C@@H](N)CCCCN)C(=O)N[C@@H](CCCCN)C(N)=O` [K(OC16)K-NH2], for which the “IC50, MCF-7 (48h)” value in [1] was 15.47 ± 1.04 mg/L (≈ 24.7 µM). Moreover, the “IC50, A549 (48h)” value in experiment [2] is above 25 mg/L. Further, the “IC50, HCT-116 (48h)” value in [3] was 18.07 ± 0.54 mg/L (≈ 28.9 µM). Moreover, the “IC50, HT-29 (48h)” value in experiment [4] is 20.51 ± 0.41 mg/L (≈ 32.8 µM). Moreover, in experiment [5], the “IC50, LNCaP (48h)” value is above 25 mg/L. Also, the “IC50, A375 (48h)” value in [6] was 21.60 ± 0.76 mg/L (≈ 34.5 µM). Further, in [7] (setting [10]), the “pKITC, POPG” value was 5.79 ± 0.12. The “IC50, 46BR.1N (24h)” value in experiment [8] was 9.02 ± 0.69 mg/L (≈ 14.4 µM). For the same molecule, the “IC50, HaCaT (24h)” value in experiment [9] is 6.25 ± 3.08 mg/L (≈ 9.98 µM).
As for `CCCCCCCCCCCCCCCC(=O)NCCCC[C@H](NC(=O)[C@H](CCCCN)NC(=O)[C@@H](N)CCCCN)C(=O)N[C@@H](CCCCN)C(=O)N[C@@H](CCCCN)C(N)=O` [KK(KC16)KK-NH2] (H-KKK(Palmitoyl)KK-NH2), the “IC50, MCF-7 (48h)” value in experiment [1] is above 25 mg/L. In addition, the “IC50, A549 (48h)” value in [2] was above 25 mg/L. The “IC50, HCT-116 (48h)” value in experiment [3] was found to be 15.98 ± 0.16 mg/L (≈ 17.8 µM). Further, the “IC50, HT-29 (48h)” value in experiment [4] came to 18.98 ± 0.38 mg/L (≈ 21.2 µM). Further, the “IC50, LNCaP (48h)” value in experiment [5] is above 25 mg/L. The “IC50, A375 (48h)” value in experiment [6] is above 25 mg/L. The “IC50, 46BR.1N (24h)” value in experiment [8] turned out to be 7.56 ± 1.31 mg/L (≈ 8.43 µM). For the same molecule, the “IC50, HaCaT (24h)” value in experiment [9] came out at 11.92 ± 1.57 mg/L (≈ 13.3 µM).
Turning to `CCCCCCCCCCCCCCCC(=O)NCCCC[C@H](NC(=O)[C@@H](N)CCCCN)C(=O)N[C@@H](CCCCN)C(N)=O` [K(KC16)K-NH2], the “IC50, MCF-7 (48h)” value in experiment [1] is 22.71 ± 0.79 mg/L (≈ 35.5 µM). In addition, the “IC50, A549 (48h)” value in [2] was above 25 mg/L. For the same molecule, the “IC50, HCT-116 (48h)” value in experiment [3] amounted to 20.72 ± 0.62 mg/L (≈ 32.4 µM). In experiment [4], the “IC50, HT-29 (48h)” value stood at 21.97 ± 1.10 mg/L (≈ 34.3 µM). For the same molecule, the “IC50, LNCaP (48h)” value in experiment [5] is above 25 mg/L. The “IC50, A375 (48h)” value in experiment [6] is 20.34 ± 1.47 mg/L (≈ 31.8 µM). Further, in experiment [7] (setting [10]), the “pKITC, POPG” value was 5.66 ± 0.11. Also, in [8], the “IC50, 46BR.1N (24h)” value is 9.36 ± 2.31 mg/L (≈ 14.6 µM). For the same molecule, the “IC50, HaCaT (24h)” value in experiment [9] worked out at 9.08 ± 2.28 mg/L (≈ 14.2 µM).
